According to US8507251B2, “Medium and method for culturing Mycobacterium avium subspecies paratuberculosis” (priority 2009, dated 2013):
Several values for one entry are separate records, joined by “and”; a condition that tells them apart may be missing. Equal values may be shown once.

Tests used:
[1] = test system: eight mycobacterial strains
[2] = test system: M. avium 101; assay: radiometric 14CO2 BACTEC 460 growth culture, M. avium 101; assay type: cell-based, M. avium subspecies avium
[3] = test system: single MAP strain; details: cited from earlier work
[4] = test system: MAP strain UCF-4; assay: radiometric 14CO2 BACTEC 460 growth culture, MAP UCF-4; assay type: cell-based, Mycobacterium avium subspecies paratuberculosis
[5] = test system: MAP 303; assay: radiometric 14CO2 BACTEC 460 growth culture, MAP 303; assay type: cell-based, Mycobacterium avium subspecies paratuberculosis
[6] = test system: M. avium ATCC 25291; assay: radiometric 14CO2 BACTEC 460 growth culture, M. avium 25291; assay type: cell-based, M. avium subspecies avium
[7] = test system: bacteria (including M. phlei) and fungal growth; details: 100-250 μg/ml; cited from earlier work
[8] = test system: MAP ATCC 19698; assay: radiometric 14CO2 BACTEC 460 growth culture, MAP 19698; assay type: cell-based, Mycobacterium avium subspecies paratuberculosis
[9] = test system: M. tuberculosis, M. Kansasii, M. scrofulaceum, M. avium and M. intracellulare; details: 5 mg/ml; cited from earlier work
[10] = test system: MAP strain Dominic (ATCC 43545); assay: radiometric 14CO2 BACTEC 460 growth culture, MAP Dominic; assay type: cell-based, Mycobacterium avium subspecies paratuberculosis
[11] = test system: M. avium; assay type: cell-based, M. avium subspecies avium; details: 4 μg/ml; value is a decrease
[12] = test system: Bacillus Callmette Guerin (BCG) M. bovis Karlson & Lessel (ATCC 19015); assay type: cell-based
[13] = test system: avirulent M. tb strain ATCC 25177; assay type: cell-based, M. tuberculosis
[14] = 1 μg/ml, first of the two values (two experiments)
[15] = 1 μg/ml, second of the two values (two experiments)
[16] = 4 μg/ml, first of the two values (two experiments)
[17] = 4 μg/ml, second of the two values (two experiments)
[18] = 16 μg/ml, first of the two values (two experiments)
[19] = 16 μg/ml, second of the two values (two experiments)
[20] = 64 μg/ml, first of the two values (two experiments)
[21] = 64 μg/ml, second of the two values (two experiments)

Row | SMILES | effect on growth (in words) [1] | percent change from control cGI (% ΔcGI / % −ΔcGI) ([2]; 1 μg/ml) | percent change from control cGI (% ΔcGI / % −ΔcGI) ([2]; 4 μg/ml) | percent change from control cGI (% ΔcGI / % −ΔcGI) ([2]; 16 μg/ml) | percent change from control cGI (% ΔcGI / % −ΔcGI) ([2]; 64 μg/ml) | percent change from control cGI (% ΔcGI / % −ΔcGI) ([4]; 1 μg/ml) | percent change from control cGI (% ΔcGI / % −ΔcGI) ([4]; 4 μg/ml) | percent change from control cGI (% ΔcGI / % −ΔcGI) ([4]; 16 μg/ml) | percent change from control cGI (% ΔcGI / % −ΔcGI) ([4]; 64 μg/ml) | percent change from control cGI (% ΔcGI / % −ΔcGI) ([5]; 1 μg/ml) | percent change from control cGI (% ΔcGI / % −ΔcGI) ([5]; 4 μg/ml) | percent change from control cGI (% ΔcGI / % −ΔcGI) ([5]; 16 μg/ml) | percent change from control cGI (% ΔcGI / % −ΔcGI) ([5]; 64 μg/ml) | percent change from control cGI (% ΔcGI / % −ΔcGI) ([6]; 1 μg/ml) | percent change from control cGI (% ΔcGI / % −ΔcGI) ([6]; 4 μg/ml) | percent change from control cGI (% ΔcGI / % −ΔcGI) ([6]; 16 μg/ml) | percent change from control cGI (% ΔcGI / % −ΔcGI) ([6]; 64 μg/ml) | percent change from control cGI (% ΔcGI / % −ΔcGI) ([8]; 1 μg/ml) | percent change from control cGI (% ΔcGI / % −ΔcGI) ([8]; 4 μg/ml) | percent change from control cGI (% ΔcGI / % −ΔcGI) ([8]; 16 μg/ml) | also measured
1 | CN1CCCC1c1cccnc1 (racemic) [(±) nicotine, nicotine] | neither enhancement nor an inhibitory effect |  |  |  |  |  |  |  |  |  |  |  |  |  |  |  |  |  |  |  | 
2 | CN1CCCC1c1cccnc1 (single isomer, unassigned; (+)) [(+) nicotine, nicotine] | neither enhancement nor an inhibitory effect |  |  |  |  |  |  |  |  |  |  |  |  |  |  |  |  |  |  |  | 
3 | CN1CCCC1c1cccnc1 (single isomer, unassigned; (-)) [(−) nicotine, nicotine] | neither enhancement nor an inhibitory effect |  |  |  |  |  |  |  |  |  |  |  |  |  |  |  |  |  |  |  | 
4 | CN1CCCC1c1cccnc1 (centres unmarked) [Nicotine, nicotine, reference compound] | no effect on growth | 55% | 0% | 15% | 5% | −10% | −10% | −6% | 9% | 7% | 8% | −22% | 7% | 106% | 63% | 143% | 112% | −20% | −20% | −21% | effect on MAP growth (in words) ([3]; 2 μg/ml, BACTEC 460 with OADC supplementation): Bactericidal inhibition; effect on MAP growth in culture (in words) ([3]; solitary MAP strain, pure nicotine): inhibited MAP growth; effect on growth (in words) [7]: inhibition; percent change from control cGI (% ΔcGI / % −ΔcGI) ([8]; 64 μg/ml): −11%; effect on growth (in words) [9]: Enhanced growth; percent change from control cGI (% ΔcGI / % −ΔcGI) [10, 14]: −2%; percent change from control cGI (% ΔcGI / % −ΔcGI) [10, 15]: 0%; percent change from control cGI (% ΔcGI / % −ΔcGI) [10, 16]: 29%; percent change from control cGI (% ΔcGI / % −ΔcGI) [10, 17]: 30%; percent change from control cGI (% ΔcGI / % −ΔcGI) [10, 18]: 1%; percent change from control cGI (% ΔcGI / % −ΔcGI) [10, 19]: 6%; percent change from control cGI (% ΔcGI / % −ΔcGI) [10, 20]: −12%; percent change from control cGI (% ΔcGI / % −ΔcGI) [10, 21]: 7%
5 | Nc1ccc(C(=O)O)c(O)c1 [PAS, para-amino salicylic acid, reference compound] |  |  |  |  |  |  |  |  |  |  |  |  |  |  |  |  |  |  |  |  | percent decrease from control cGI (%−ΔcGI) [11]: ≥ 94%; percent decrease from control cGI (%−ΔcGI) ([5]; 64 μg/ml, value is a decrease): 80%; percent decrease from control cGI (%−ΔcGI) ([8]; 64 μg/ml, value is a decrease): 80%; percent decrease from control cGI (%−ΔcGI) ([12]; 4 μg/ml): ≥ 94%
6 | NC(=O)c1ccc[n+]([C@H]2O[C@H](COP(=O)([O-])OP(=O)(O)OC[C@H]3O[C@@H](n4cnc5c(N)ncnc54)[C@H](O)[C@@H]3O)[C@@H](O)[C@H]2O)c1 [α-NAD, α-nicotinamide adenine dinucleotide] |  | 39% | −15% | −21% | −14% | 18% | 35% | 65% | 81% | 8% | 9% | −8% | −18% | −2% | 160% | 131% | 147% | −16% | −6% | −17% | effect on growth (in words) [2]: little or no effect; effect on growth (in words) [5]: little or no effect; effect on growth (in words) [8]: little or no effect; percent change from control cGI (% ΔcGI / % −ΔcGI) ([8]; 64 μg/ml): 13%; percent change from control cGI (% ΔcGI / % −ΔcGI) [10, 14]: 25%; percent change from control cGI (% ΔcGI / % −ΔcGI) [10, 15]: −16%; percent change from control cGI (% ΔcGI / % −ΔcGI) [10, 16]: 79%; percent change from control cGI (% ΔcGI / % −ΔcGI) [10, 17]: 35%; percent change from control cGI (% ΔcGI / % −ΔcGI) [10, 18]: 104%; percent change from control cGI (% ΔcGI / % −ΔcGI) [10, 19]: 78%; percent change from control cGI (% ΔcGI / % −ΔcGI) [10, 20]: 135%; percent change from control cGI (% ΔcGI / % −ΔcGI) [10, 21]: 115%; effect on growth (in words) [13]: little or no effect; percent change from control cGI (% ΔcGI / % −ΔcGI) [13]: 2% and −6% and −1% and 0%; effect on growth (in words) ([12]; at the doses tested): little or no effect
